In the NIST ThermoML archive (doi:10.1016/j.jct.2012.12.001):
± gives the expanded uncertainty stated by the source.

Experiment: heat capacity at constant pressure per volume; xn = mol fraction of the nth substance listed
Details: 101 kPa, Liquid, DSC, x2 = 0.713

CCCCCCCCCCCCCCCCCC [octadecane] + N#Cc1ccccc1
Details	heat capacity [J/K/m3]
303.58 K	1893500 ± 20000
303.61 K	1895600 ± 20000
303.64 K	1894200 ± 20000
303.66 K	1894100 ± 20000
303.69 K	1893500 ± 20000
303.72 K	1893700 ± 20000
303.75 K	1897900 ± 20000
303.78 K	1897000 ± 20000
303.8 K	1893000 ± 20000
303.83 K	1895200 ± 20000
303.86 K	1892600 ± 20000
303.89 K	1900300 ± 20000
303.92 K	1898300 ± 20000
303.94 K	1898400 ± 20000
303.97 K	1899900 ± 20000
304 K	1891800 ± 20000
304.03 K	1897900 ± 20000
304.06 K	1900800 ± 20000
304.09 K	1899300 ± 20000
304.11 K	1897800 ± 20000
304.14 K	1899100 ± 20000
304.17 K	1900600 ± 20000
304.2 K	1897100 ± 20000
304.23 K	1902700 ± 20000
304.25 K	1900600 ± 20000
304.28 K	1893900 ± 20000
304.31 K	1900100 ± 20000
304.34 K	1897300 ± 20000
304.37 K	1899500 ± 20000
304.39 K	1898900 ± 20000
304.42 K	1904200 ± 20000
304.45 K	1900400 ± 20000
304.48 K	1895000 ± 20000
304.51 K	1898500 ± 20000
304.54 K	1903400 ± 20000
304.56 K	1902200 ± 20000
304.59 K	1903900 ± 20000
304.62 K	1901200 ± 20000
304.65 K	1901800 ± 20000
304.68 K	1903500 ± 20000
304.7 K	1904200 ± 20000
304.73 K	1899600 ± 20000
304.76 K	1899700 ± 20000
304.79 K	1900400 ± 20000
304.82 K	1904800 ± 20000
304.84 K	1903700 ± 20000
304.87 K	1904600 ± 20000
304.9 K	1904600 ± 20000
304.93 K	1903200 ± 20000
304.96 K	1902600 ± 20000
304.98 K	1900600 ± 20000
305.01 K	1902200 ± 20000
305.04 K	1902200 ± 20000
305.07 K	1903000 ± 20000
305.1 K	1907100 ± 20000
305.12 K	1903100 ± 20000
305.15 K	1908100 ± 20000
305.18 K	1904700 ± 20000
305.21 K	1904200 ± 20000
305.24 K	1905700 ± 20000
305.27 K	1907500 ± 20000
305.29 K	1908300 ± 20000
305.32 K	1908600 ± 20000
305.35 K	1908400 ± 20000
305.38 K	1906900 ± 20000
305.41 K	1907700 ± 20000
305.44 K	1908100 ± 20000
305.46 K	1909400 ± 20000
305.49 K	1908500 ± 20000
305.52 K	1909000 ± 20000
305.55 K	1908400 ± 20000
305.57 K	1909200 ± 20000
305.6 K	1906500 ± 20000
305.63 K	1908200 ± 20000
305.66 K	1908500 ± 20000
305.69 K	1909100 ± 20000
305.72 K	1909500 ± 20000
305.74 K	1911100 ± 20000
305.77 K	1910000 ± 20000
305.8 K	1907500 ± 20000
305.83 K	1908700 ± 20000
305.86 K	1914100 ± 20000
305.88 K	1911500 ± 20000
305.91 K	1910100 ± 20000
305.94 K	1909200 ± 20000
305.97 K	1909700 ± 20000
306 K	1906900 ± 20000
306.02 K	1909600 ± 20000
306.05 K	1913100 ± 20000
306.08 K	1913500 ± 20000
306.11 K	1917400 ± 20000
306.14 K	1917300 ± 20000
306.17 K	1913000 ± 20000
306.19 K	1914700 ± 20000
306.22 K	1914300 ± 20000
306.25 K	1915600 ± 20000
306.28 K	1918100 ± 20000
306.31 K	1915700 ± 20000
306.33 K	1916100 ± 20000
306.36 K	1913300 ± 20000
306.39 K	1910700 ± 20000
306.42 K	1914500 ± 20000
306.45 K	1911200 ± 20000
306.48 K	1914800 ± 20000
306.5 K	1918100 ± 20000
306.53 K	1921200 ± 20000
306.56 K	1920200 ± 20000
306.59 K	1916400 ± 20000
306.62 K	1922000 ± 20000
306.64 K	1923600 ± 20000
306.67 K	1922600 ± 20000
306.7 K	1921800 ± 20000
306.73 K	1922000 ± 20000
306.76 K	1921100 ± 20000
306.78 K	1915500 ± 20000
306.81 K	1915900 ± 20000
306.84 K	1920400 ± 20000
306.87 K	1916900 ± 20000
306.9 K	1923600 ± 20000
306.93 K	1927300 ± 20000
306.95 K	1929700 ± 20000
306.98 K	1927500 ± 20000
307.01 K	1924100 ± 20000
307.04 K	1928000 ± 20000
307.06 K	1932100 ± 20000
307.09 K	1924600 ± 20000
307.12 K	1927400 ± 20000
307.15 K	1929100 ± 20000
307.18 K	1928200 ± 20000
307.21 K	1926400 ± 20000
307.23 K	1925500 ± 20000
307.26 K	1931000 ± 20000
307.29 K	1928800 ± 20000
307.32 K	1935200 ± 20000
307.35 K	1931700 ± 20000
307.37 K	1930400 ± 20000
307.4 K	1932600 ± 20000
307.43 K	1934400 ± 20000
307.46 K	1934700 ± 20000
307.49 K	1935300 ± 20000
307.51 K	1940700 ± 20000
307.54 K	1937500 ± 20000
307.57 K	1936300 ± 20000
307.6 K	1936200 ± 20000
307.63 K	1932400 ± 20000
307.66 K	1937300 ± 20000
307.68 K	1942100 ± 20000
307.71 K	1944000 ± 20000
307.74 K	1939900 ± 20000
307.77 K	1932400 ± 20000
307.8 K	1938300 ± 20000
307.82 K	1947000 ± 20000
307.85 K	1949300 ± 20000
307.88 K	1946700 ± 20000
307.91 K	1938400 ± 20000
307.94 K	1933900 ± 20000
307.96 K	1951300 ± 20000
307.99 K	1961700 ± 20000
308.02 K	1944900 ± 20000
308.05 K	1926900 ± 20000
308.08 K	1941200 ± 20000
308.11 K	1958000 ± 20000
308.13 K	1970100 ± 20000
308.16 K	1961600 ± 20000
308.19 K	1937100 ± 20000
308.22 K	1930400 ± 20000
308.25 K	1946700 ± 20000
308.27 K	1964400 ± 20000
308.3 K	1971900 ± 20000
308.33 K	1970700 ± 20000
308.36 K	1959500 ± 20000
308.39 K	1936500 ± 20000
308.42 K	1912300 ± 21000
308.44 K	1924300 ± 20000
308.47 K	1951900 ± 20000
308.5 K	2008600 ± 20000
308.53 K	2043600 ± 20000
308.56 K	2018100 ± 20000
308.58 K	1941300 ± 20000
308.61 K	1912700 ± 20000
308.64 K	1927600 ± 20000
308.67 K	1961900 ± 20000
308.7 K	1999600 ± 20000
308.72 K	2029400 ± 20000
308.75 K	2032700 ± 20000
308.78 K	1994600 ± 20000
308.81 K	1952000 ± 20000
308.84 K	1951000 ± 20000
308.87 K	1967200 ± 20000
308.89 K	1986400 ± 20000
308.92 K	2016500 ± 20000
308.95 K	2025600 ± 20000
308.98 K	1992600 ± 20000
309 K	1977300 ± 20000
309.03 K	1975500 ± 20000
309.06 K	1984100 ± 20000
309.09 K	2003300 ± 20000
309.12 K	2020100 ± 20000
309.15 K	2018700 ± 20000
309.17 K	2001300 ± 21000
309.2 K	1997100 ± 21000
309.23 K	1999200 ± 20000
309.26 K	2022000 ± 20000
309.29 K	2056100 ± 20000
309.31 K	2064600 ± 21000
309.34 K	2035200 ± 22000
309.37 K	2025000 ± 21000
309.4 K	2039600 ± 22000
309.43 K	2070400 ± 23000
309.45 K	2095200 ± 22000
309.48 K	2108700 ± 24000
309.51 K	2150900 ± 26000
309.54 K	2201100 ± 29000
309.57 K	1939300 ± 31000
309.6 K	1869500 ± 33000
309.62 K	1848200 ± 36000
309.65 K	1833800 ± 40000
309.68 K	1826700 ± 23000
309.71 K	1819300 ± 21000
309.74 K	1817500 ± 20000
309.76 K	1810200 ± 20000
309.79 K	1806800 ± 20000
309.82 K	1803600 ± 20000
309.85 K	1800700 ± 20000
309.88 K	1798700 ± 20000
309.9 K	1794300 ± 20000
309.93 K	1792100 ± 20000
309.96 K	1792800 ± 20000
309.99 K	1790300 ± 20000
310.02 K	1787500 ± 20000
310.05 K	1785800 ± 20000
310.07 K	1787100 ± 20000
310.1 K	1782100 ± 20000
310.13 K	1784300 ± 20000
310.16 K	1779800 ± 20000
310.19 K	1779800 ± 20000
310.21 K	1778600 ± 20000
310.24 K	1778600 ± 20000
310.27 K	1775500 ± 20000
310.3 K	1773400 ± 20000
310.33 K	1772700 ± 20000
310.35 K	1774100 ± 20000
310.38 K	1771100 ± 20000
310.41 K	1773500 ± 20000
310.44 K	1771400 ± 20000
310.47 K	1770500 ± 20000
310.5 K	1768500 ± 20000
310.52 K	1769800 ± 20000
310.55 K	1768900 ± 20000
310.58 K	1766300 ± 20000
310.61 K	1764600 ± 20000
310.64 K	1764400 ± 20000
310.66 K	1764600 ± 20000
310.69 K	1763300 ± 20000
310.72 K	1763400 ± 20000
310.75 K	1765000 ± 20000
310.78 K	1762800 ± 20000
310.8 K	1762200 ± 20000
310.83 K	1757300 ± 20000
310.86 K	1761100 ± 20000
310.89 K	1760100 ± 20000
310.92 K	1760700 ± 20000
310.94 K	1761100 ± 20000
310.97 K	1760600 ± 20000
311 K	1759800 ± 20000
311.03 K	1759800 ± 20000
311.06 K	1758100 ± 20000
311.09 K	1757600 ± 20000
311.11 K	1758300 ± 20000
311.14 K	1758800 ± 20000
311.17 K	1757800 ± 20000
311.2 K	1757900 ± 20000
311.23 K	1756900 ± 20000
311.25 K	1754900 ± 20000
311.28 K	1754400 ± 20000
